Assay [1] deals with Kappa-type opioid receptor (Rattus norvegicus, UniProt P34975).
For assay [2], the target named is Delta-type opioid receptor (Rattus norvegicus, UniProt P33533).
The target of the next assay is Mu-type opioid receptor (Rattus norvegicus, UniProt P33535).

The values below come from BindingDB's records for doi:10.1046/j.1460-9568.2003.02744.x (University of Innsbruck, 2003).

A word on the Ki: it is a dissociation constant, usually derived from enzyme kinetics or from competition with a known ligand. Low values mean higher affinity, high ones lower affinity.

Kappa-type opioid receptor, sequence (P34975 whole entry): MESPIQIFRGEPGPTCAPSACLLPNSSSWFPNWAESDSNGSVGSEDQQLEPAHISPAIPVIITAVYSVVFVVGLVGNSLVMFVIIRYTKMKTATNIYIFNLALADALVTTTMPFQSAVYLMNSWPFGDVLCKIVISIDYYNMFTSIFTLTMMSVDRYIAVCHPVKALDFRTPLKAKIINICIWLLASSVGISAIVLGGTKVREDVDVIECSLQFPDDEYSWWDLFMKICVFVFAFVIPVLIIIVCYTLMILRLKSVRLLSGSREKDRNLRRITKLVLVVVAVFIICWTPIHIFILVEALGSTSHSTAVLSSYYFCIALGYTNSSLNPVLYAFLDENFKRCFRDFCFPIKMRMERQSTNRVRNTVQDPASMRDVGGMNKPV
Delta-type opioid receptor, sequence (P33533 whole entry): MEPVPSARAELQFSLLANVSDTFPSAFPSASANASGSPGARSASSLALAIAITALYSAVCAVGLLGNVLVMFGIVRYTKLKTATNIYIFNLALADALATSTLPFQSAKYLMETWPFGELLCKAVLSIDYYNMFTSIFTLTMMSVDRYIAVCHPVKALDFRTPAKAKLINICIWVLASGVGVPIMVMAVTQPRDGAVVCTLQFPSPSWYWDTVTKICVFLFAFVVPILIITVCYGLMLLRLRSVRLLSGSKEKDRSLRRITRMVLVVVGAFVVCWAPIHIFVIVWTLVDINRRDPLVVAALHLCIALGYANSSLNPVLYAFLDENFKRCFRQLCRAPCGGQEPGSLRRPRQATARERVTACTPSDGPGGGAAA
Mu-type opioid receptor, sequence (P33535 whole entry): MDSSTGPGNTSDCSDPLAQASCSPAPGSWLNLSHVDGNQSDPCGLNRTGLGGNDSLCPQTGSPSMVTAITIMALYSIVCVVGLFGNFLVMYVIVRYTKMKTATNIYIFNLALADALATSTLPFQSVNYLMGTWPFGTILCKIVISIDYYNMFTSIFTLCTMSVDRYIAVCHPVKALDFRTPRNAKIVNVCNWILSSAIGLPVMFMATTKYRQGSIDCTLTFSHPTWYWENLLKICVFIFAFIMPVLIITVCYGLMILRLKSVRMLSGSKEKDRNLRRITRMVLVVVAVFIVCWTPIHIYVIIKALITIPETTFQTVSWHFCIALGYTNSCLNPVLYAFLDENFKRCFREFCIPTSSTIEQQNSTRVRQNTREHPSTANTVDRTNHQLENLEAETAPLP

Compound `Oc1ccc2c3c1OC1c4[nH]c5c(c4CC4(O)CN(CCC314)C(C1CC1)C2)CC1(O)CN2CCC13c1c(ccc(O)c1OC53)CC2C1CC1` (stereo unspecified) [CAS_105618-26-6] returned a Ki in assay [1] of 38.8 nM.
`CCO[C@@]12Cc3c([nH]c4ccccc34)[C@]3(C)Oc4c(O)ccc5c4[C@@]31CCN(CC1CC1)C2C5` [HS-378] registered an inhibition constant (Ki) in assay [2] of 528 nM.
As for `COC12CCC(=O)C3(C)Oc4c(O)ccc5c4C31CCN(C)C2C5` (stereo unspecified) [NSC_125489], the Ki was 25.2 nM in assay [1] and 0.48 nM at Mu-type opioid receptor.
On Mu-type opioid receptor, `COc1cccc2c1C13CCN(CC4CC4)C(C2)C1(OC)CCC(=O)C3` (stereo unspecified) [NSC_3081671] showed a Ki of 15.1 nM. In other words, the double-digit nanomolar range.
In turn, `CC(C)[C@H](NC(=O)[C@H](CCC(=O)O)NC(=O)[C@H](Cc1ccccc1)NC(=O)[C@@H](C)NC(=O)[C@@H](N)Cc1ccc(O)cc1)C(=O)N[C@H](C(=O)NCC(N)=O)C(C)C` [Tyr-D-Ala-Phe-Glu-Val-Val-GlyNH2] showed a Ki in assay [2] of 48.3 nM.
